In ChEMBL document CHEMBL1137632, “Galanin message-associated peptide suppresses growth and the budded-to-hyphal-form transition of Candida albicans” (2007):
Calls of active or inactive are those of the source. No cut-off for these calls is given here.

How the values were obtained:
Candida albicans [1] = test: Antifungal activity against Candida albicans SC5314 assessed as inhibition of fungal transformation from budded-to-hyphal-form at 2 uM after 24 hrs by microscopy; assay type: functional, organism-based
Candida albicans [2] = test: Antifungal activity against Candida albicans SC5314 assessed as inhibition of fungal transformation from budded-to-hyphal-form at 1 uM after 24 hrs by microscopy; assay type: functional, organism-based
Candida albicans [3] = test: Antifungal activity against Candida albicans SC5314 assessed as inhibition of fungal transformation from budded-to-hyphal-form at 4 uM after 24 hrs by microscopy; assay type: functional, organism-based
Candida albicans [4] = test: Antifungal activity against Candida albicans SC5314 at 6.3 uM after 16 hrs by BacTiter-Glow assay; assay type: functional, organism-based
Candida albicans [5] = test: Antifungal activity against Candida albicans CBS 5983 at 6.3 uM after 16 hrs by BacTiter-Glow assay; assay type: functional, organism-based
Candida albicans [6] = test: Antifungal activity against Candida albicans clinical isolates at 6.3 uM after 16 hrs by BacTiter-Glow assay; assay type: functional, organism-based
Candida albicans [7] = test: Antifungal activity against Candida albicans K2 at 6.3 uM after 16 hrs by BacTiter-Glow assay; assay type: functional, organism-based
Candida albicans [8] = test: Antifungal activity against Candida albicans SC5314 at 32 uM after 16 hrs by BacTiter-Glow assay; assay type: functional, organism-based
Candida albicans [9] = test: Antifungal activity against Candida albicans clinical isolates at 32 uM after 16 hrs by BacTiter-Glow assay; assay type: functional, organism-based
Candida albicans [10] = test: Antifungal activity against Candida albicans CBS 5983 at 32 uM after 16 hrs by BacTiter-Glow assay; assay type: functional, organism-based
Candida albicans [11] = test: Antifungal activity against Candida albicans K2 at 32 uM after 16 hrs by BacTiter-Glow assay; assay type: functional, organism-based
Candida albicans [12] = test: Antifungal activity against Candida albicans K2 at 4.3 uM after 16 hrs by BacTiter-Glow assay relative to untreated control; assay type: functional; settings: pooled result: one value given for 4 cell lines, strains, targets or settings
Candida albicans [13] = test: Antifungal activity against Candida albicans CBS 5983 at 4.15 uM after 16 hrs by BacTiter-Glow assay relative to untreated control; assay type: functional
Candida albicans [14] = test: Antifungal activity against Candida albicans SC5314 at 4.15 uM after 16 hrs by BacTiter-Glow assay relative to untreated control; assay type: functional
Candida albicans [15] = test: Antifungal activity against Candida albicans K2 at 4.15 uM after 16 hrs by BacTiter-Glow assay relative to untreated control; assay type: functional
Candida albicans [16] = test: Antifungal activity against Candida albicans clinical isolates at 4.15 uM after 16 hrs by BacTiter-Glow assay relative to untreated control; assay type: functional
Candida albicans [17] = test: Antifungal activity against Candida albicans clinical isolates at 4 uM after 16 hrs by BacTiter-Glow assay; assay type: functional, organism-based
Candida albicans [18] = test: Antifungal activity against Candida albicans SC5314 at 4 uM after 16 hrs by BacTiter-Glow assay; assay type: functional, organism-based
Candida albicans [19] = test: Antifungal activity against Candida albicans clinical isolates at 4.1 uM after 16 hrs by BacTiter-Glow assay; assay type: functional, organism-based
Candida albicans [20] = test: Antifungal activity against Candida albicans CBS 5983 at 4.1 uM after 16 hrs by BacTiter-Glow assay; assay type: functional, organism-based
Candida albicans [21] = test: Antifungal activity against Candida albicans K2 at 4.1 uM after 16 hrs by BacTiter-Glow assay; assay type: functional, organism-based
Candida albicans [22] = test: Antifungal activity against Candida albicans SC5314 at 4.1 uM after 16 hrs by BacTiter-Glow assay; assay type: functional, organism-based
Candida albicans [23] = test: Antifungal activity against Candida albicans CBS 5983 at 4 uM after 16 hrs by BacTiter-Glow assay; assay type: functional, organism-based
Candida albicans [24] = test: Antifungal activity against Candida albicans K2 at 4 uM after 16 hrs by BacTiter-Glow assay; assay type: functional, organism-based
Candida albicans [25] = test: Antifungal activity against Candida albicans K2 at 24.3 uM after 16 hrs by BacTiter-Glow assay; assay type: functional, organism-based
Candida albicans [26] = test: Antifungal activity against Candida albicans CBS 5983 at 24.3 uM after 16 hrs by BacTiter-Glow assay; assay type: functional, organism-based
Candida albicans [27] = test: Antifungal activity against Candida albicans clinical isolates at 24.3 uM after 16 hrs by BacTiter-Glow assay; assay type: functional, organism-based
Candida albicans [28] = test: Antifungal activity against Candida albicans SC5314 at 24.3 uM after 16 hrs by BacTiter-Glow assay; assay type: functional, organism-based

For CC[C@H](C)[C@H](NC(=O)[C@H](C)NC(=O)CNC(=O)[C@H](C)NC(=O)[C@H](CCC(=O)O)NC(=O)[C@H](CCCCN)NC(=O)[C@H](CC(C)C)NC(=O)[C@H](Cc1cnc[nH]1)NC(=O)[C@H](CC(C)C)NC(=O)[C@H](Cc1ccccc1)NC(=O)[C@H](CO)NC(=O)[C@H](CC(C)C)NC(=O)[C@H](Cc1ccccc1)NC(=O)[C@H](CCC(=O)O)NC(=O)[C@@H](NC(=O)[C@@H](NC(=O)[C@@H](NC(=O)[C@H](CCCNC(=N)N)NC(=O)[C@H](CCSC)NC(=O)[C@@H](NC(=O)[C@H](CC(N)=O)NC(=O)[C@H](CC(N)=O)NC(=O)[C@H](CCC(=O)O)NC(=O)[C@@H]1CCCN1C(=O)[C@@H](NC(=O)[C@H](CO)NC(=O)[C@H](CCCNC(=N)N)NC(=O)[C@H](CC(=O)O)NC(=O)[C@H](Cc1ccccc1)NC(=O)[C@H](CO)NC(=O)CNC(=O)[C@@H]1CCCN1C(=O)[C@H](CCCCN)NC(=O)[C@H](CCSC)NC(=O)[C@H](CC(=O)O)NC(=O)[C@H](CC(=O)O)NC(=O)[C@H](CCC(=O)O)NC(=O)[C@@H]1CCCN1C(=O)[C@H](CCCNC(=N)N)NC(=O)[C@H](CC(C)C)NC(=O)[C@@H](N)CCC(=O)O)[C@@H](C)CC)[C@@H](C)CC)[C@H](C)O)[C@@H](C)CC)[C@@H](C)CC)C(=O)O, the Activity (Candida albicans [1]) was “Active”, the Activity (Candida albicans [2]) was “inactive” and the Activity (Candida albicans [3]) was “Active”.

In the case of CC[C@H](C)[C@H](NC(=O)[C@H](C)NC(=O)[C@H](Cc1c[nH]cn1)NC(=O)[C@@H]1CCCN1C(=O)CNC(=O)[C@H](CC(C)C)NC(=O)[C@H](CC(C)C)NC(=O)[C@H](Cc1ccc(O)cc1)NC(=O)CNC(=O)[C@H](C)NC(=O)[C@H](CO)NC(=O)[C@H](CC(N)=O)NC(=O)[C@H](CC(C)C)NC(=O)[C@@H](NC(=O)[C@H](Cc1c[nH]c2ccccc12)NC(=O)CN)[C@@H](C)O)C(=O)N[C@@H](CC(=O)O)C(=O)N[C@@H](CC(N)=O)C(=O)N[C@@H](Cc1c[nH]cn1)C(=O)N[C@@H](CCCNC(=N)N)C(=O)N[C@@H](CO)C(=O)N[C@@H](Cc1ccccc1)C(=O)N[C@@H](Cc1c[nH]cn1)C(=O)N[C@@H](CC(=O)O)C(=O)N[C@@H](CCCCN)C(=O)N[C@@H](Cc1ccc(O)cc1)C(=O)NCC(=O)N[C@@H](CC(C)C)C(=O)N[C@@H](C)C(N)=O, the Activity (Candida albicans [4]) is reported as “inactive”, the Activity (Candida albicans [5]) is reported as “inactive” and the Activity (Candida albicans [6]) is reported as “inactive”. The Activity (Candida albicans [7]) was “inactive”.

With OC(Cn1cncn1)(Cn1cncn1)c1ccc(F)cc1F the Activity (Candida albicans [8]) was “Active”, the Activity (Candida albicans [9]) was “Active” and the Activity (Candida albicans [10]) was “Active”. For the same molecule, the Activity (Candida albicans [11]) was “Active”.

“H-ELRPEDDMKPGSFDRSIPENNIMRTIIEFLSFLHLKEAGAL-OH” was tested, and the Activity (Candida albicans [12]) was 48.7%.

With “H-GIGKFLHSAGKFGKAFVGEIMKS-OH [MAGAININ I]” the Activity (Candida albicans [13]) was >90%, the Activity (Candida albicans [14]) was >90% and the Activity (Candida albicans [15]) was >90%. The Activity (Candida albicans [16]) was >90%.

For H-LQSEDKAIRTIMEFLAFLHLKEAGAL-OH, the Activity (Candida albicans [17]) was “Active”, the Activity (Candida albicans [18]) was “Active” and the Activity (Candida albicans [19]) was “Active”. The Activity (Candida albicans [20]) was “Active”, the Activity (Candida albicans [21]) was “Active” and the Activity (Candida albicans [3]) was “Active”. The Activity (Candida albicans [22]) was “Active”, the Activity (Candida albicans [23]) was “Active” and the Activity (Candida albicans [24]) was “Active”.

In the case of H-PENNIMRTIIEFLSFLHLKEAGAL-OH, the Activity (Candida albicans [25]) is reported as “inactive”, the Activity (Candida albicans [26]) is reported as “inactive” and the Activity (Candida albicans [27]) is reported as “inactive”. For the same molecule, the Activity (Candida albicans [28]) was “inactive”.

In the case of H-SIPENNIMRTIIEFLSFLHLKEAGAL-OH, the Activity (Candida albicans [1]) is reported as “Active”, the Activity (Candida albicans [17]) is reported as “Active” and the Activity (Candida albicans [18]) is reported as “Active”. For the same molecule, the Activity (Candida albicans [19]) was “Active”, the Activity (Candida albicans [20]) was “Active” and the Activity (Candida albicans [2]) was “inactive”. The Activity (Candida albicans [21]) was “Active”, the Activity (Candida albicans [3]) was “Active” and the Activity (Candida albicans [22]) was “Active”. The Activity (Candida albicans [23]) was “Active” and the Activity (Candida albicans [24]) was “Active”.
